For orientation: EC50 means the midpoint of the concentration-response curve. High values mean weaker potency, low ones greater potency.

Molecules are shown by their SMILES.

The values below come from article PMC9124600 (Medical Oncology (Northwood, London, England), 2022).

For the experiment, the target named is T1, MASTL kinase (Microtubule-associated serine/threonine kinase-like; Great wall kinase) (Homo sapiens, UniProt Q96GX5).
T1 sequence (Q96GX5 1-879): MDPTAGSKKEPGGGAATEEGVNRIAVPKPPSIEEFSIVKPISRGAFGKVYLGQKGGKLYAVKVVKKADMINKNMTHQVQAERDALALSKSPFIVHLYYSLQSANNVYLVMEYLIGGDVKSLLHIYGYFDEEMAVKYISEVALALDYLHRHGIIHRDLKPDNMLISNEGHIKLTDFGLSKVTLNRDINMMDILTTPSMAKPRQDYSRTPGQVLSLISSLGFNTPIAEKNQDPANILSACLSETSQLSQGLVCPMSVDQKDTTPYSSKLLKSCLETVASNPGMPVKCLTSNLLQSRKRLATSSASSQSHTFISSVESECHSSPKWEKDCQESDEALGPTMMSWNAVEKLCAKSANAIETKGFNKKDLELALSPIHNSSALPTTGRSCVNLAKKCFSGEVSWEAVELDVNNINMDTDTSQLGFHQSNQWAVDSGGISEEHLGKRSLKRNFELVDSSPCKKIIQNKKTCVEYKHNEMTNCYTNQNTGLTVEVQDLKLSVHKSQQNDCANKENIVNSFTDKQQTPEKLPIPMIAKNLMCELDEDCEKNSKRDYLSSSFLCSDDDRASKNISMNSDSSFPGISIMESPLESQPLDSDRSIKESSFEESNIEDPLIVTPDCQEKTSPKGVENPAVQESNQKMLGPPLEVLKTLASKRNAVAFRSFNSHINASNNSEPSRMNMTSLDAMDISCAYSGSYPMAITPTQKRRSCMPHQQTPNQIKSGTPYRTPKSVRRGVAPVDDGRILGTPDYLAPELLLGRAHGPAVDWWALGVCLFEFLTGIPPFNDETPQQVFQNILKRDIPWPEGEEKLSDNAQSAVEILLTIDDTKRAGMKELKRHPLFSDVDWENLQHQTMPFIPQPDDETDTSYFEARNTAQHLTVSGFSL
The experiment is described as follows: ADP-Glo luminescent in vitro kinase assay. The format is biochemical. For orientation: ADP-Glo turns the ADP formed in a reaction into a luminescent signal.

Consider `Cn1cc(C2=C(c3cn(C4CCN(Cc5ccccn5)CC4)c4ccccc34)C(=O)NC2=O)c2ccccc21` [Enzastaurin], for which the EC50 is 17.1 µM. In other words, the double-digit micromolar range.
In the case of `CC(=O)c1c(C)c2cnc(Nc3ccc(N4CCNCC4)cn3)nc2n(C2CCCC2)c1=O` [Palbociclib] it was 10.5 µM.
